A word on the EC50: it is the concentration that produces a half-maximal response. Read a low EC50 as a more potent agent.

EC50 data for 7 molecules are collected here from publication PMC7127469 (European Journal of Medicinal Chemistry, 2010).

Some results are limits rather than exact numbers.

Common to all, as to format: cell-based
One test deals with influenza A H1N1 subtype. Put plainly: Antiviral assay, inhibition of virus-induced cytopathic effect, MDCK cells. For orientation: Cytopathic effects are the visible damage that an infection or toxin causes in cultured cells.
Another test deals with influenza A H3N2 subtype. Described as above.
A further test has as its system influenza B. The description is as above.
Test [1] has as its system herpes simplex virus-1(KOS). The test can be described thus: microbe, parasite or virus in culture. Conditions: Human alphaherpesvirus 1, HEL, virus d, HEL cells.
Test [2] concerns herpes simplex virus-2 (G). Put plainly: microbe, parasite or virus in culture. Conditions: Human alphaherpesvirus 2, HEL, virus e, HEL cells.
In the next test the test system is vaccinia virus. The test can be described thus: microbe, parasite or virus in culture. Conditions: Orthopoxvirus vaccinia, HEL.
For test [3], the system named is Vesicular stomatitis virus. The test can be described thus: microbe, parasite or virus in culture. Conditions: HEL.
The subject of another test is feline herpes virus. Put plainly: organism not typed. Conditions: CRFK, virus o, CRFK cells.
The next test has as its system coxsackie virus B4. Put plainly: microbe, parasite or virus in culture. Conditions: Enterovirus B, B4, HeLa, coxsackie virus B4, HeLa cells.
The next test deals with para-influenza-3 virus. The test can be described thus: organism not typed. Conditions: Vero, virus i, Vero cells.
The next test deals with reovirus-1. The test can be described thus: organism not typed. The conditions noted are these: Vero, virus j, reovirus-1, Vero cells.
The subject of another test is sindbis virus. Put plainly: microbe, parasite or virus in culture. The conditions noted are these: Vero, virus k, Vero cells.
Another test concerns coxsakie virus B4. The test can be described thus: organism not typed. Conditions: Vero.
The test system of another test is punta toro virus. Put plainly: microbe, parasite or virus in culture. Conditions: Vero, virus m, Vero cells.
The test system of test [4] is Vesicular stomatitis virus. The test can be described thus: microbe, parasite or virus in culture. The conditions noted are these: HeLa.
[5] abbreviates: virus p, influenza A H1N1 subtype, MDCK cells.
The mark [6] stands for this setting: virus q, influenza A H3N2 subtype, MDCK cells.

As to `CCC(CC)O[C@@H]1C=C(C(=O)O)C[C@H](N)[C@H]1NC(C)=O` [Oseltamivir-carboxylate], the EC50 was 0.07 µM in the test on influenza A H1N1 subtype (Influenza A virus, H1N1, MDCK); 1700 nM in the test on influenza A H3N2 subtype (Influenza A virus, H3N2, MDCK); 4 µM in the test on influenza B.
With `Nc1nc(O)c2ncn(COC(CO)CO)c2n1` [Ganciclovir], the EC50 in [1] was 30 nM; in [2] it was 0.03 µM; with vaccinia virus, over 100 µM; in test [3], over 100 µM; in the test on feline herpes virus, 2600 nM.
As to `CC(N)C12CC3CC(CC(C3)C1)C2` (centres unmarked) [Rimantidin], the EC50 amounted to 20 µM with influenza A H1N1 subtype (setting [5]) and 800 nM with influenza A H3N2 subtype (setting [6]).
`Nc1ncnc2c1ncn2C[C@H](O)CO` [(S)-DHPA]: the EC50 in the test on coxsackie virus B4, in the test on para-influenza-3 virus, in the test with reovirus-1, in the test on sindbis virus, in the test with coxsakie virus B4 and in the test with punta toro virus was over 250 µM throughout.
With `NC12CC3CC(CC(C3)C1)C2` [Amantidin], the EC50 in the test with influenza A H1N1 subtype (setting [5]) worked out at 45 µM; with influenza A H3N2 subtype (setting [6]), 4000 nM.
Consider `O=c1[nH]c(=O)n([C@H]2C[C@H](O)[C@@H](CO)O2)cc1/C=C/Br` [Brivudine], for which the EC50 in test [1] was 80 nM; in test [2], 50 µM; in the test on vaccinia virus, 2 µM; in [3], over 250 µM.
Turning to `NC(=O)c1ncn([C@@H]2O[C@H](CO)[C@@H](O)[C@H]2O)n1` [Ribavirin], the EC50 in test [4] was 10 µM; in the test on coxsackie virus B4, 30 µM; in test [1], 10000 nM; in test [2], 50 µM; in the test on vaccinia virus, 85 µM; in test [3] it was over 250 µM. The EC50 is 95 µM in the test with para-influenza-3 virus; 250 µM with reovirus-1; over 250 µM in the test on coxsakie virus B4; 50 µM with punta toro virus; 7 µM with influenza A H1N1 subtype (Influenza A virus, H1N1, MDCK); 9000 nM with influenza A H3N2 subtype (Influenza A virus, H3N2, MDCK). The midpoint of the response in the test on influenza B, the EC50, lay at 9 µM.
